Experimental data as given in patent US10617680B2 (CELGENE QUANTICEL RESEARCH, INC., priority 2017, dated 2020).

These molecules were tested against CBP (Homo sapiens (Human), UniProt Q92793) (assay: In vitro CBP inhibition (AlphaScreen, biotinylated H4-tetraacetyl peptide)). Details: AlphaScreen, Table 29; read-out: CBP IC50.
Type: binding
Outline: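 His-tagged CBP expressed in E. coli (50 nM final) incubated with biotinylated H4K5/8/12/16(Ac) peptide (20 nM final) in 50 mM HEPES pH 7.3, 10 mM NaCl, 0.25 mM TCEP, 0.1% BSA, 0.005% Brij-35, 0.4% DMSO, 20 min at room temp.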

Chain of CBP (Q92793 1081-1197): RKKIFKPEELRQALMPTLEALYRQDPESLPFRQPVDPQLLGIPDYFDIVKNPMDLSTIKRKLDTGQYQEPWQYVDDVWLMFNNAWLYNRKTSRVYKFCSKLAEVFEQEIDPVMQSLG

Row | SMILES | IC50 [nM]
1 | COc1ccc(-c2cc(=O)n(C)cc2-c2cnn(-c3ccccc3S(C)(=O)=O)c2)cn1 [Example 285, 5′-[1-(2-Methanesulfonyl-phenyl)-1H-pyrazol-4-yl]-6-methoxy-1′-methyl-1′H-[3,4′]bipyridinyl-2′-one] | < 500
2 | Cn1cc(-c2cnn(-c3ccccc3C(=O)O)c2)c(-c2cccnc2)cc1=O [Example 227, 2-[4-(1′-Methyl-6′-oxo-1′,6′-dihydro-[3,4′]bipyridinyl-3′-yl)-pyrazol-1-yl]-benzoic acid] | < 500
3 | CC(C)Nc1ccc(-c2cc(=O)n(C)cc2-c2cnn(-c3cccc(Cl)c3C#N)c2)cn1 [Example 339, 2-chloro-6-[4-[4-[6-(isopropylamino)-3-pyridyl]-1-methyl-6-oxo-3-pyridyl]-pyrazol-1-yl]benzonitrile] | < 500
4 | Cc1c(-c2cnn(Cc3ccccc3)c2)ccc(=O)n1C [Example 195, 5-(1-Benzyl-1H-pyrazol-4-yl)-1,6-dimethyl-1H-pyridin-2-one] | > 5000
5 | CCOc1cc(=O)n(C)cc1-c1cnn(-c2ccccc2F)c1 [Example 252, 4-ethoxy-5-(1-(2-fluorophenyl)-1H-pyrazol-4-yl)-1-methylpyridin-2(1H)-one] | < 500
6 | CC(c1ccccc1)n1cc(-c2cn(C)c(=O)c3c2CCC3)cn1 (stereo not drawn) [Example 33, 2-methyl-4-(1-(1-phenylethyl)-1H-pyrazol-4-yl)-2,5,6,7-tetrahydro-1H-cyclopenta[c]pyridin-1-one] | < 500
7 | CCOc1cc(=O)n(C)cc1-c1cnn(-c2cccc(C#N)c2)c1 [Example 251, 3-(4-(4-ethoxy-1-methyl-6-oxo-1,6-dihydropyridin-3-yl)-1H-pyrazol-1-yl)benzonitrile] | < 500
8 | CC(C)COc1ccc(-c2cc(=O)n(C)cc2-c2cnn(-c3ccccc3C(=O)O)c2)cn1 [Example 232, 2-[4-(6-Isobutoxy-1′-methyl-6′-oxo-1′,6′-dihydro-[3,4′]bipyridinyl-3′-yl)-pyrazol-1-yl]-benzoic acid] | < 500
9 | Cn1cc(-c2cnn(-c3ccccc3-c3nnn[nH]3)c2)c(-c2ccc(Cl)cc2)cc1=O [Example 297, 5-(1-(2-(1H-tetrazol-5-yl)phenyl)-1H-pyrazol-4-yl)-4-(4-chlorophenyl)-1-methylpyridin-2(1H)-one] | < 500
10 | CCOc1cc(=O)n(C)cc1-c1cnn(Cc2ccc(C(C)C)cc2)c1 [Example 101, 4-ethoxy-5-[1-(4-isopropyl-benzyl)-1H-pyrazol-4-yl]-1-methyl-1H-pyridin-2-one] | < 500
11 | COc1ccc(-c2cc(=O)n(C)cc2-c2cnn(-c3ccccc3C(=O)NC#N)c2)cc1 [Example 290, N-cyano-2-(4-(4-(4-methoxyphenyl)-1-methyl-6-oxo-1,6-dihydropyridin-3-yl)-1H-pyrazol-1-yl)benzamide] | < 500
12 | COc1ccc(-c2cc(=O)n(C)cc2-c2cnn(-c3cccc(F)c3C#N)c2)cn1 [Example 274, 2-Fluoro-6-[4-(6-methoxy-1′-methyl-6′-oxo-1′,6′-dihydro-[3,4′]bipyridinyl-3′-yl)-pyrazol-1-yl]-benzonitrile] | < 500
13 | COc1ccc(C(=O)O)c(-n2cc(-c3cn(C)c(=O)cc3-c3ccccc3)cn2)c1 [Example 267, 4-Methoxy-2-[4-(1-methyl-6-oxo-4-phenyl-1,6-dihydro-pyridin-3-yl)-pyrazol-1-yl]-benzoic acid] | < 500
14 | CN(C)S(=O)(=O)NC(=O)c1ccccc1-n1cc(-c2cn(C)c(=O)cc2C2CC2)cn1 [Example 304, N-[(dimethylamino)sulfonyl]-{2-[4-(4-cyclopropyl-1-methyl-6-oxo(3-hydropyridyl))pyrazolyl]phenyl}carboxamide] | < 500
15 | C[C@H](c1ccccc1)n1cc(-c2cn(C)c(=O)cc2N2CCCC2)cn1 [Example 55, (R)-1-methyl-5-(1-(1-phenylethyl)-1H-pyrazol-4-yl)-4-(pyrrolidin-1-yl)pyridin-2(1H)-one] | < 500
16 | CCOc1cc(=O)n(C)cc1-c1cn(Cc2ccccc2)nc1[N+](=O)[O-] [Example 185, 5-(1-benzyl-3-nitro-1H-pyrazol-4-yl)-4-ethoxy-1-methylpyridin-2(1H)-one] | < 500
17 | Cn1cc(-c2cnn(Cc3ccccc3)c2)c2cnccc2c1=O [Example 9, 4-(1-benzyl-1H-pyrazol-4-yl)-2-methyl-2,6-naphthyridin-1(2H)-one] | < 500
18 | Cc1cc(-c2cnn(C(C)c3cccc(C(F)F)c3)c2)cn(C)c1=O (stereo not drawn) [Example 11, 5-(1-(1-(3-(difluoro-methyl)phenyl)ethyl)-1H-pyrazol-4-yl)-1,3-dimethylpyridin-2(1H)-one] | < 500
19 | Cn1cc(-c2cnn(Cc3ccccc3)c2)c(-c2ccc(=O)[nH]c2)cc1=O [Example 194, 5′-(1-Benzyl-1H-pyrazol-4-yl)-1′-methyl-1H,1′H-[3,4′]bipyridinyl-6,2′-dione] | < 500
20 | COc1cc(-c2cc(=O)n(C)cc2-c2cnn(-c3cccc(F)c3C#N)c2)ccc1C [Example 278, 2-fluoro-6-(4-(4-(3-methoxy-4-methylphenyl)-1-methyl-6-oxo-1,6-dihydro-pyridin-3-yl)-1H-pyrazol-1-yl)benzonitrile] | < 500

Row | SMILES | IC50 [nM]
21 | Cn1cc(-c2cnn(-c3cccc(Cl)c3C#N)c2)c(-c2ccc(OC3CC3)nc2)cc1=O [Example 364, 2-chloro-6-[4-[4-[6-(cyclopropoxy)-3-pyridyl]-1-methyl-6-oxo-3-pyridyl]pyrazol-1-yl]benzonitrile] | < 500
22 | Cn1cc(-c2ncc(-c3ccccc3)o2)c(-c2ccccc2)cc1=O [Example 394, 1-methyl-4-phenyl-5-(5-phenyloxazol-2-yl)pyridin-2(1H)-one] | 500 to 5000
23 | Cc1cc(-c2cc(=O)n(C)cc2-c2cnn(-c3ccccc3C#N)c2)c[nH]c1=O [Example 210, 2-[4-(5,1′-Dimethyl-6,6′-dioxo-1,6,1′,6′-tetrahydro-[3,4′]bipyridinyl-3′-yl)-pyrazol-1-yl]-benzonitrile] | < 500
24 | Cn1ccc(-c2cc(=O)n(C)cc2-c2cnn(-c3ccccc3C(=O)NC#N)c2)cc1=O [Example 293, N-cyano-2-(4-(1,1′-dimethyl-2′,6-dioxo-1,1′,2′,6-tetrahydro-[4,4′-bipyridin]-3-yl)-1H-pyrazol-1-yl)benzamide] | < 500
25 | COc1ncc(-c2cc(=O)n(C)cc2-c2cnn(-c3ccccc3Cl)c2)cn1 [Example 315, 5-(1-(2-chlorophenyl)-1H-pyrazol-4-yl)-4-(2-methoxypyrimidin-5-yl)-1-methylpyridin-2(1H)-one] | < 500
26 | Cc1cc(-c2cnn(Cc3ccccc3)c2)cn(C)c1=O [Example 13, 5-(1-benzyl-1H-pyrazol-4-yl)-1,3-dimethyl-pyridin-2(1H)-one] | < 500
27 | C[C@@H](c1ccccc1)n1cc(-c2cn(C)c(=O)cc2-n2cccn2)cn1 [Example 60, (S)-1-methyl-5-(1-(1-phenylethyl)-1H-pyrazol-4-yl)-4-(1H-pyrazol-1-yl)pyridin-2(1H)-one] | < 500
28 | Cc1c(-c2cnn(C(C)c3ccccc3)c2)cn(C)c(=O)c1C (stereo not drawn) [Example 30, 1,3,4-trimethyl-5-(1-(1-phenylethyl)-1H-pyrazol-4-yl)pyridin-2(1H)-one] | < 500
29 | Cn1cc(-c2cnn(-c3ccccc3C#N)c2)c(-c2ccc(Cl)cc2)cc1=O [Example 214, 2-{4-[4-(4-Chloro-phenyl)-1-methyl-6-oxo-1,6-dihydro-pyridin-3-yl]-pyrazol-1-yl}-benzonitrile] | < 500
30 | Cn1cc(-c2cnn(Cc3ccccc3)c2)c(N2CC[C@H](C(=O)O)C2)cc1=O [Example 75, (S)-1-(5-(1-benzyl-1H-pyrazol-4-yl)-1-methyl-2-oxo-1,2-dihydro-pyridin-4-yl)pyrrolidine-3-carboxylic acid] | < 500
31 | COc1ccc(-c2cc(=O)n(C)cc2-c2cnn(-c3ccccc3F)c2)cn1 [Example 319] | < 500
32 | CCOc1ccc(-c2cc(=O)n(C)cc2-c2cnn(-c3cccc(F)c3C#N)c2)cn1 [Example 359, 2-(4-(6-ethoxy-1′-methyl-6′-oxo-1′,6′-dihydro-[3,4′-bipyridin]-3′-yl)-1H-pyrazol-1-yl)-6-fluorobenzonitrile] | < 500
33 | CC(c1ccccc1)n1cc(-c2cc(C3CC3)c(=O)n(C)c2)cn1 (stereo not drawn) [Example 197, 3-Cyclopropyl-1-methyl-5-[1-(1-phenyl-ethyl)1H-pyrazol-4-yl]-1H-pyridin-2-one] | > 5000
34 | Cn1cc(-c2cnn(Cc3ccccc3)c2)c(N2CC[C@@H](NS(=O)(=O)C(F)(F)F)C2)cc1=O [Example 173, (R)-N-(1-(5-(1-benzyl-1H-pyrazol-4-yl)-1-methyl-2-oxo-1,2-dihydropyridin-4-yl)pyrrolidin-3-yl)-1,1,1-trifluoromethanesulfonamide] | 500 to 5000
35 | CC(c1ccccc1)n1cc(-c2cn(C)c(=O)cc2F)cn1 (stereo not drawn) [Example 21, 4-fluoro-1-methyl-5-(1-(1-phenylethyl)-1H-pyrazol-4-yl) pyridin-2(1H)-one] | 500 to 5000
36 | Cn1cc(-c2cnn(-c3cccc(Cl)c3C#N)c2)c(-c2cnc(N3CCCCC3)nc2)cc1=O [Example 338, 2-chloro-6-(4-(1-methyl-6-oxo-4-(2-(piperidin-1-yl)pyrimidin-5-yl)-1,6-dihydropyridin-3-yl)-1H-pyrazol-1-yl)benzonitrile] | < 500
37 | CCOc1cc(=O)n(C)cc1-c1cnn(-c2cccc(Cl)c2C#N)c1 [Example 178, 2-Chloro-6-[4-(4-ethoxy-1-methyl-6-oxo-1,6-dihydro-pyridin-3-yl)-pyrazol-1-yl]-benzonitrile] | < 500
38 | CC(C)c1ccc(-c2cc(=O)n(C)cc2-c2cnn(-c3cccc(Cl)c3C#N)c2)cn1 [Example 376, 2-chloro-6-[4-[4-(6-isopropyl-3-pyridyl)-1-methyl-6-oxo-3-pyridyl]pyrazol-1-yl]benzonitrile] | < 500
39 | CCn1ccc(-c2cc(=O)n(C)cc2-c2cnn(-c3cccc(C4CC4)c3C#N)c2)cc1=O [Example 386, 2-cyclopropyl-6-[4-[4-(1-ethyl-2-oxo-4-pyridyl)-1-methyl-6-oxo-3-pyridyl]pyrazol-1-yl]benzonitrile] | < 500
